Measured values from US8771975B2, “Quantitation of GCP activity in biological samples” (The Johns Hopkins University, priority 2011, dated 2014).
Where two headings read alike, the source gives them in different places.

Key:
GCP [1] = target: T1, GCP (Rattus norvegicus, UniProt P70627); format: in vivo; conditions: 1 hour after administration
T1 construct: Reconstituted pellet preparations from rat paw pads were used as source of GCP II; from tissue; host or cells: male Wistar rat paw pad skin (plantar hindpaw), 16000xg pellet; animals dosed i.p. with 2-PMPA
Procedure: A determination of GCP activity was carried out using male Wistar rat paw pads. Skin was collected from the planter hindpaw by 3 mm skin biopsy dissection and sonicated for 2 minutes in ice. The mixture was centrifuged for 2 minutes at 16000×g and the resulting pellet was reconstituted similar to the pellets obtained from the human skin dissections. Reconstituted pellet preparations from rat paw pads were used as source of GCP II and incubated with [^3H] NAAG, as described above for the human skin samples.
In order to determine if GCP activity in skin in vivo could be inhibited by peripheral administration of 2-PMPA, rats were administered vehicle (HEPES saline, pH 7, 50 mM) or 2-PMPA (1, 10 and 100 mg/kg, i.p.) using a dosing volume of 2 mL/kg. There were 10 animals in each group. Animals were sacrificed 1 hour after 2-PMPA or vehicle administration. […]

GCP [2] = assay: GCP enzyme activity assay with human skin biopsy pellet ([3H]-NAAG cleavage); format: biochemical; conditions: 2-PMPA 1 μM added to assay mixture; [3H]-NAAG 70 nM, 37° C.
Procedure: Punch skin biopsies (3 mm) were obtained from the distal thigh of healthy human volunteers after anesthesia with 0.5 cc 2% lidocaine subcutaneous injection. Samples were placed in cold Tris buffer (pH 7.4) and GCP enzymatic activity was carried out within 1 hour of collection. The skin were homogenized, the homogenate was centrifuged and the pellet was used as source of GCP in the enzyme activity assay. Briefly, human skin biopsies were sonicated in Tris buffer (pH 7.4, 40 mM, 0.5 mL) for 1 minute in ice. The mixture was centrifuged for 2 minutes at 16000×g; the supernantant (containing endogenous […]) was removed and the resulting pellet (containing GCP) was reconstituted in 70 μL assay buffer (Tris pH 7.4, 40 mM containing 1 mM CoCl2) and used as source of GCP in the activity assay. Reconstituted pellet was then incubated with [^3H] […] The radioactivity in each vial corresponding to [^3H]-glutamate was determined via a Beckman LS-6000IC scintillation counter. Radioactivity values in dpm were converted to fmoles of glutamate using the relation 1 pCi/2.2 dpm and the specific activity of [^3H]-glutamate (same as that of [^3H]-NAAG: 1 fmole/50 pCi). As a result, if 16711 dpm [^3H]-glutamate were measured after incubating 10 mg tissue for 1 h, the normalized activity would be: 16711 dpm×(1 pCi/2.2 dpm)×(1 fmole/50 pCi)/10 mg tissue=15 fmole/h/mg tissue. […]

[3] = 2-PMPA level in paw pads by LC-MS/MS; format: in vivo, rat; conditions: 100 mg/kg i.p., 1 hour after administration, n=9, LC-MS/MS
Procedure: The presence of 2-PMPA in skin was determined. Animals were given 2-PMPA (100 mg/kg, i.p.), sacrificed 1 hour after compound administration and paw pads isolated for direct determination of 2-PMPA levels by LC-MS/MS. Since 2-PMPA detection by mass spectrometry has low sensitivity due to ion suppression, samples from animals that had received 100 mg/kg 2-PMPA rather than 10 mg/kg were analyzed to increase the probability of detecting 2-PMPA.
Briefly, frozen samples were thawed in a water bath at ambient temperature and subjected to a liquid extraction using MeOH. Samples were placed in brown glass vials containing 500 μL of 100% MeOH. […] The sample was transferred to a 250 μL polypropylene auto sampler vial sealed with a Teflon crimp cap, and a volume of 50 μL was injected onto the HPLC instrument for quantitative analysis using a temperature-controlled auto sampling device operating at 10° C.
Chromatographic analysis was performed using a Waters ACQUITY UPLC (Milford, Mass., USA). […] The column effluent was monitored using an AB SCIEX TRIPLE QUAD 5500 triple-quadrupole mass-spectrometric detector (Applied Biosystems, Foster City, Calif., USA). […] The daughter ions for 2-PMPA (m/z 191.1) and the internal standard (m/z 255.1) were monitored through the third quadrupole (Q3). […]

GCP [4] = assay: GCP activity in rat sciatic nerve after peripheral (i.p.) administration; format: in vivo; conditions: 1 hour after administration
From the text: Sciatic nerve is the target tissue for GCP inhibitors in clinical trials for peripheral neuropathy and neuropathic pain. To obtain sciatic nerve samples, 1-2 cm incisions were made to the skin on top of the rat's mid-thigh so that sciatic nerve, gluteus superficialis muscle and biceps femoris muscle were exposed. The three were then separated and 5 mm of sciatic nerve was removed and analyzed as described above for the human skin and rat paw pad samples. GCP activity in sciatic nerve preparations from animals treated with 1, 10 and 100 mg/kg 2-PMPA was reduced to 92±11, 35±6 and 10±4% respectively compared to activity in sciatic nerve isolated from control animals (FIG. 3). Albeit to a different extent, GCP inhibition in sciatic nerve is attained at similar 2-PMPA doses (10 and 100 mg/kg i.p.) as in footpad tissue.

T1 sequence (P70627 whole entry): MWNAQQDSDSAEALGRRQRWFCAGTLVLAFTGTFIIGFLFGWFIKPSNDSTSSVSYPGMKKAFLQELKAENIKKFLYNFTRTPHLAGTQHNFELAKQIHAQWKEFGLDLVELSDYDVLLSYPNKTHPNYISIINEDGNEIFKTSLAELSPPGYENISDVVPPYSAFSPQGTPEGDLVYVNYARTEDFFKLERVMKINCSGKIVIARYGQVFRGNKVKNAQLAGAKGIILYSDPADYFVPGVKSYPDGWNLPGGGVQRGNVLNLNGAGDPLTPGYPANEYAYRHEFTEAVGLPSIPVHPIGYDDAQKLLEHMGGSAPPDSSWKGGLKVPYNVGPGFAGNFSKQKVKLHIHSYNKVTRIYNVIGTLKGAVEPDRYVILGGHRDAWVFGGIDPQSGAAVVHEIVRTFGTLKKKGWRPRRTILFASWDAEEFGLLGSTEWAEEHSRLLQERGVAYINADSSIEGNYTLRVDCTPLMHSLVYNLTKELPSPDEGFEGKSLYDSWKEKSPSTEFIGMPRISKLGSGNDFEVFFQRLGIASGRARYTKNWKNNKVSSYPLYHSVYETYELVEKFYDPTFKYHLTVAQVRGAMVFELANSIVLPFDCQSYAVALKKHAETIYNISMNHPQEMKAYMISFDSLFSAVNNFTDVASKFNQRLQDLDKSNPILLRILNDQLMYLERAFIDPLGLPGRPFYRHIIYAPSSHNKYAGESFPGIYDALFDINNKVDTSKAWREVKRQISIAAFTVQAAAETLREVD

SMILES: O=C(O)CCC(CP(=O)(O)O)C(=O)O (stereo not shown) [2-PMPA]
- GCP activity in paw pads compared to control animals (GCP [1]; 10 mg/kg i.p.): 60±11%
- GCP activity in paw pads compared to control animals (GCP [1]; 100 mg/kg i.p.): 47±11%
- inhibition of GCP activity in human skin pellet preparations (GCP [2]): 90%
- 2-PMPA concentration in paw pads [3]: 38±5 μg/g tissue
- GCP activity in sciatic nerve preparations compared to control animals (GCP [4]; 1 mg/kg i.p.): 92±11%
- GCP activity in sciatic nerve preparations compared to control animals (GCP [4]; 10 mg/kg i.p.): 35±6%
- GCP activity in sciatic nerve preparations compared to control animals (GCP [4]; 100 mg/kg i.p.): 10±4%
